Results as given in ChEMBL document CHEMBL1128148, “Molecular design of novel PGI2 agonists without PG skeleton. III” (Bioorg Med Chem Lett, 1995).

Assays:
Homo sapiens = species: Homo sapiens; assay: Compound was tested for the inhibition of 4 uM ADP-induced platelet aggregation by using human platelet rich plasma; type: functional
Prostacyclin receptor [1] = molecular target: T1, Prostacyclin receptor (Homo sapiens, UniProt P43119); assay: Compound was tested for prostacyclin (PGI-2) binding by displacement of [3H]iloprost from human platelets using conventional ligand binding assay
Prostacyclin receptor [2] = molecular target: T1, Prostacyclin receptor; assay: Compound was tested for prostacyclin (PGI-2) binding by displacement of [3H]iloprost from human platelets.; settings: concentration not given here

T1 sequence (P43119 whole entry): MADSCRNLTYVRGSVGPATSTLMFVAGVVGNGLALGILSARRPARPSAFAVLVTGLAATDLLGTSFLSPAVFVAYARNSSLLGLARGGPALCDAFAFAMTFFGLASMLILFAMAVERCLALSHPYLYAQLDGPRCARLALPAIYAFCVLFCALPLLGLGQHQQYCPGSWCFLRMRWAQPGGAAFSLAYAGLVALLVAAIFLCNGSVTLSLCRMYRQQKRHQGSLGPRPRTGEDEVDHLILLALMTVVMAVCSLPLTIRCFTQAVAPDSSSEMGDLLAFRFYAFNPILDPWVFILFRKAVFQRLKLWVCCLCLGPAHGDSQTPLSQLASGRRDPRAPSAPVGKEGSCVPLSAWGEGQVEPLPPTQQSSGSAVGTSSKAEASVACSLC

For `O=C(O)COc1cccc2c1CCC(CON=C(c1ccccc1)c1ccccc1)C2` (stereo unspecified), the IC50 (Homo sapiens) was 2400 nM and the IC50 (Prostacyclin receptor [1]) was 2400 nM.

Molecule `O=C(O)COc1cccc2c1CCCC2CCON=C(c1ccccc1)c1ccccc1` (stereo unspecified) has an IC50 (Homo sapiens) of 250 nM and an IC50 (Prostacyclin receptor [1]) of 210 nM.

With `O=C(O)COc1cccc2c1CCC(CCOC(c1ccccc1)c1ccccc1)C2` (stereo unspecified) the IC50 (Homo sapiens) was over 20000 nM and the IC50 (Prostacyclin receptor [1]) was 8000 nM.

Molecule `O=C(O)COc1cccc2c1CCCC2CCC(=O)NN(c1ccccc1)c1ccccc1` (stereo unspecified) has an IC50 (Homo sapiens) of 57 nM and an IC50 (Prostacyclin receptor [1]) of 10 nM.

Work on `O=C(O)COc1cccc2c1CCCC2CCCCOC(c1ccccc1)c1ccccc1` (stereo unspecified) yielded an IC50 (Homo sapiens) of 11000 nM and an IC50 (Prostacyclin receptor [1]) of 4200 nM.

With `O=C(O)COc1cccc2c1CCC(CC(=O)NN(c1ccccc1)c1ccccc1)C2` (stereo unspecified) the IC50 (Homo sapiens) was 150 nM.

`O=C(O)COc1cccc2c1CCCC2CCCOC(c1ccccc1)c1ccccc1` (stereo unspecified) showed an IC50 (Homo sapiens) of 450 nM and an IC50 (Prostacyclin receptor [1]) of 460 nM.

`O=C(O)COc1cccc2c1CCC(CCCOC(c1ccccc1)c1ccccc1)C2` (stereo unspecified) was tested, and the IC50 (Homo sapiens) was over 20000 nM, the inhibition (Prostacyclin receptor [2]) was 25% and the IC50 (Prostacyclin receptor [1]) was over 10000 nM.
